Here are results for seven compounds from US20240057587A1, “ORGANIC AMMONIUM SALT AND HYDROGEN-BONDING MATERIAL TREATMENT AGENT USING SAME” (MIYOSHI OIL & FAT CO.,LTD., priority 2019, published 2024).

Read-outs that look alike come from different tables or passages of the source.

The target of data set [1] is T1, urease (Canavalia ensiformis, UniProt P07374). The format is biochemical, sword bean. The following applies: solid sample, 40° C., 80% RH, after 30 days.
Data set [2] concerns the target T1, urease. The format is biochemical, sword bean. Conditions: urease in 50 wt % aqueous solution of compound; 40° C., 80% RH; after 30 days; Stabilizer:Enzyme = 1:1.
For a further data set, the system named is DNA. As to the kind of experiment: DNA long-term stability, 50% aqueous solution. The following applies: 40° C., 80% RH.
Data set [3] has as its target T1, urease. The format is biochemical, sword bean. The following applies: urease, 40° C., 80% RH, after 30 days, 1:1; for Enzyme activity retention rate (%) (after 30 days) Stabilizer:Enzyme = 1:1, Mixed by mortar: solid sample mixed by mortar; for Enzyme activity retention rate (%) (after 30 days) Stabilizer:Enzyme = 1:1, Solvent distilled away from dissolution solution: solid sample.

Data set [4] deals with T2, cytochrome C (Equus caballus, UniProt P00004).
T2 construct: a reagent produced by NACALAI TESQUE, INC; (Horse Heart, molecular weight 12384) was used; purchased NACALAI TESQUE, INC; host or cells: horse heart (tissue origin)
T2 sequence (P00004 whole entry): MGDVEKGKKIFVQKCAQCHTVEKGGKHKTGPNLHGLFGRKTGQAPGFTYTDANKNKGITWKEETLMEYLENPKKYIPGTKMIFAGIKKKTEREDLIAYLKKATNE
The data set is described as follows: Protein long-term stability (IR and UV spectrum), solid sample. More on the design: species or system Horse. The following applies: cytochrome C, solid sample, 40° C., 80% RH, after 30 days.

The target in data set [5] is T2, cytochrome C. The data set is described as follows: Protein long-term stability, 50% aqueous solution. More on the design: species or system Horse. The following applies: cytochrome C in 50 wt % aqueous solution of compound; 40° C.; after 30 days; 1:1. The protocol: At first, changes in amide absorption by IR spectrum were precisely observed, and there were confirmed the higher-order structures of protein (turn, α-helix, random coil, β-sheet). The amide I region (1,600 to 1,700 cm^−1) and the amide II region (1,500 to 1,600 cm^−1) were measured by ATR method using a Fourier transform infrared spectrophotometer (FT/IR-6100 by JASCO Corporation), and peaks were then detected based on a difference(s) between a cytochrome C-free organic ammonium salt sample (blank) and a cytochrome C-containing organic ammonium salt sample (sample).
Further, the activity state of cytochrome C (Fe^2+: reduced form, Fe^3+: oxidized form) was confirmed via absorptions in UV spectrum. The measurement was conducted using an ultraviolet-visible spectrophotometer and a quartz cell having an optical path width of 2 mm, immediately after diluting the cytochrome C-containing organic ammonium salt sample to 1% with a 50 mM phosphate buffer of pH 7.4 (prepared using 50 mM potassium dihydrogen phosphate and 50 mM dipotassium hydrogen phosphate).

The nature of data set [6]: Metal oxide dispersibility test (zirconium oxide). The format is physicochemical. The following applies: 0.25 g compound, 0.50 g water, 0.10 g zirconium oxide (IV); for Zirconium oxide dispersibility: visual.
Data set [7] can be described thus: Metal oxide dispersibility test (titanium oxide). Conditions: 0.25 g compound, 0.50 g water, 0.10 g titanium oxide (IV); for Titanium oxide dispersibility: visual. It is filed as physicochemical.
Data set [8] in a line: Carbon nanotube dispersibility test. It is filed as physicochemical. The following applies: 0.25 g compound, 0.75 g water, 0.025 g carbon nanotubes; for Carbon nanotube dispersibility: visual.
Data set [9] can be described thus: Organic dye dispersibility test. The format is physicochemical. The following applies: 0.2 g compound, 0.7 g water; for Dye dispersibility: 0.1 g Vali Fast Black 3830, ultrasonic dispersion, after 24 hours, visual.
The conditions of data set [10]: for Redispersibility Zirconium oxide: dispersion liquid dried at 50° C. under reduced pressure for three hours, 0.50 g water added, remixed, visual.
The conditions of data set [11]: for Redispersibility Titanium oxide: dispersion liquid dried at 50° C. under reduced pressure for three hours, 0.50 g water added, remixed, visual.
The conditions of data set [12]: for Redispersibility Dye: Vali Fast Black 3830 dispersion liquid dried at 50° C. under reduced pressure for three hours, 0.7 g water added, remixed, visual.
For data set [13] the following is noted: 0.25 g compound, 0.50 g water, 0.10 g zinc oxide; for Zinc oxide dispersibility: visual.
For data set [14] the following is noted: 0.25 g compound, 0.50 g water, 0.10 g barium titanate; for Barium titanate dispersibility: visual.

T1 sequence (P07374 whole entry, looked up): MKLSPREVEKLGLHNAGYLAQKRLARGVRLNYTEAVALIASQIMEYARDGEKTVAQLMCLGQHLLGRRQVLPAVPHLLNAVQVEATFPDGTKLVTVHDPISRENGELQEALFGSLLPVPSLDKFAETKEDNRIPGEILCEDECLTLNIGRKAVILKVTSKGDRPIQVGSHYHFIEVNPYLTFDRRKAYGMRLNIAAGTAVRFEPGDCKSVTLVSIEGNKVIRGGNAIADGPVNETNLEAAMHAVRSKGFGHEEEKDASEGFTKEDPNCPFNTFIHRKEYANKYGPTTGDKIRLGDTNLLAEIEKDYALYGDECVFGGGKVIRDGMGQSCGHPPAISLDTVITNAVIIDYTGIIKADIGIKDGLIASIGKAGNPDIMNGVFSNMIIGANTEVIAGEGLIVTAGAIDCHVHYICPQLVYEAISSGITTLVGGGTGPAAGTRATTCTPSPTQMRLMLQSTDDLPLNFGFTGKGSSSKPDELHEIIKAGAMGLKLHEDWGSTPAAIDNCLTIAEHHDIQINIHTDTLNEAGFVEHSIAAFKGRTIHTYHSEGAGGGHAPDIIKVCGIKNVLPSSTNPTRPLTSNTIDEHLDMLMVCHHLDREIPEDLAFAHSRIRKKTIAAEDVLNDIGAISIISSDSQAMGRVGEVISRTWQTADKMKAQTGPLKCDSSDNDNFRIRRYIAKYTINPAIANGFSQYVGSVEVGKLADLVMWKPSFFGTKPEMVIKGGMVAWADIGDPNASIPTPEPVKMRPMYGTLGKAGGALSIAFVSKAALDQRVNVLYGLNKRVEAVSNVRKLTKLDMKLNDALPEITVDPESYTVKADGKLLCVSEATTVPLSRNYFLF

As for `CCC(N)(CO)CO` [Working example 35], on urease [1], the “Enzyme activity retention rate(%) (after 30 days) Stabilizer: Enzyme = 0.1:1” value was 9%, the “Enzyme activity retention rate(%) (after 30 days) Stabilizer: Enzyme = 1:1” value (“Enzyme activity retention rate(%) … Enzyme = 1:1” below) came out at 16% and the “Enzyme activity retention rate(%) (after 30 days) Stabilizer: Enzyme = 10:1” value worked out at 22%. The “Enzyme activity retention rate(%) … Enzyme = 1:1” value at urease [2] turned out to be 10%. For the same compound, in the data set on DNA, the “DNA long-term stability (after 30 days) Stabilizer: DNA = 1:1” value (shortened to “DNA long-term stability”) was “○ ○”. At urease [3], the “Enzyme activity retention rate (%) (after 30 days) Stabilizer:Enzyme = 1:1, Mixed by mortar” value (from here on “Enzyme activity retention rate (%) … by mortar”) stood at 0% and the “Enzyme activity retention rate (%) (after 30 days) Stabilizer:Enzyme = 1:1, Solvent distilled away from dissolution solution” value is recorded as 16%.
Regarding `NC(CO)CO` [Working example 26], on urease [1], the “Enzyme activity retention rate(%) (after 30 days) Stabilizer: Enzyme = 0.1:1” value was determined as 10%, the “Enzyme activity retention rate(%) … Enzyme = 1:1” value is reported as 81% and the “Enzyme activity retention rate(%) (after 30 days) Stabilizer: Enzyme = 10:1” value amounted to 25%. Besides, the “Enzyme activity retention rate(%) … Enzyme = 1:1” value at urease [2] came to 18%. At cytochrome C [4], the “Protein long-term stability (after 30 days) Stabilizer: Protein = 0.1:1” value (“Protein long-term stability … Protein = 0.1:1” for short) was “◯”, the “Protein long-term stability (after 30 days) Stabilizer: Protein = 1:1” value is “◯” and the “Protein long-term stability (after 30 days) Stabilizer: Protein = 10:1” value (shortened to “Protein long-term stability … Protein = 10:1”) is given as “◯”. In addition, the “Protein long-term stability (after 30 days) Stabilize:Protein = 1:1” value on cytochrome C [5] was “○”. Also, the “DNA long-term stability” value with DNA is reported as “○”. Moreover, at urease [3], the “Enzyme activity retention rate (%) … by mortar” value worked out at 13% and the “Enzyme activity retention rate (%) (after 30 days) Stabilizer:Enzyme = 1:1, Solvent distilled away from dissolution solution” value was 81%. Also, the Zirconium oxide dispersibility result in [6] is “○”. Also, the Titanium oxide dispersibility result in data set [7] was “○”. Moreover, the Carbon nanotube dispersibility entry in data set [8] is given as “○”. For the same compound, in data set [9], the Dye dispersibility result is “○”.
As for `NC(CO)(CO)CO` [Working example 36], on urease [1], the “Enzyme activity retention rate(%) (after 30 days) Stabilizer: Enzyme = 0.1:1” value is 27%, the “Enzyme activity retention rate(%) … Enzyme = 1:1” value came to 41% and the “Enzyme activity retention rate(%) (after 30 days) Stabilizer: Enzyme = 10:1” value was determined as 45%. For the same compound, at urease [2], the “Enzyme activity retention rate(%) … Enzyme = 1:1” value was 39%. Also, on cytochrome C [4], the “Protein long-term stability … Protein = 0.1:1” value is “◯”, the “Protein long-term stability (after 30 days) Stabilizer: Protein = 1:1” value is “◯” and the “Protein long-term stability … Protein = 10:1” value was “◯”. Besides, at cytochrome C [5], the “Protein long-term stability (after 30 days) Stabilize:Protein = 1:1” value is recorded as “○ ○ ○”. Further, at urease [3], the “Enzyme activity retention rate (%) … by mortar” value is 7% and the “Enzyme activity retention rate (%) (after 30 days) Stabilizer:Enzyme = 1:1, Solvent distilled away from dissolution solution” value amounted to 41%. Also, the Zirconium oxide dispersibility entry in [6] is reported as “○ ○ ○ ○”. Moreover, in [7], the Titanium oxide dispersibility entry is given as “○ ○ ○ ○”. In data set [9], the Dye dispersibility result was “○ ○ ○ ○”. Moreover, the “Redispersibility Zirconium oxide” value in data set [10] is “○ ○ ○ ○”. Moreover, the “Redispersibility Titanium oxide” value in data set [11] is “○ ○ ○ ○”. Moreover, the “Redispersibility Dye” value in data set [12] is given as “○ ○ ○ ○”. For the same compound, in [13], the Zinc oxide dispersibility entry is given as “○ ○ ○ ○”. In addition, the Barium titanate dispersibility entry in data set [14] is on record as “○ ○ ○ ○”.
For the compound `CCCC[N+](CCCC)(CCCC)CCCC.[Br-]` [Comparative example 12, tetra-n-butylammonium bromide, reference compound], in data set [6], the “dispersed state of zirconium oxide (visual)” value was “zirconium oxide immediately precipitated, and therefore did not disperse”. Further, the “dispersed state of titanium oxide (visual)” value in data set [7] is “a low dispersibility was observed as titanium oxide had precipitated”. Also, the “dispersed state of carbon nanotubes (visual)” value in [8] was “the carbon nanotubes did not disperse, but precipitated”. Further, the “mixed and dispersed state of organic dye after 24 hours (visual)” value in data set [9] (0.1 g Vali Fast Black 3830, ultrasonic dispersion) is “the organic dye did not disperse, but precipitated”. Also, the “dispersed state after redispersion (visual)” value in data set [10] (dried zirconium oxide dispersion, 0.50 g of water added) is “precipitates were observed immediately after performing mixing with the mixer”; in [11] (dried titanium oxide dispersion, 0.50 g of water added), “precipitates were observed immediately after performing mixing with the mixer”; in [12] (dried Vali Fast Black 3830 dispersion, 0.7 g of water added), “precipitates were observed immediately after performing mixing with the mixer”. Moreover, the “dispersed state of zinc oxide (visual)” value in data set [13] is “zinc oxide did not disperse, but immediately precipitated”. In data set [14], the “dispersed state of barium titanate (visual)” value is reported as “barium titanate did not disperse, but immediately precipitated”.
With `NC(CO)(CO)CO` [Working example 48], on urease [1], the “Enzyme activity retention rate(%) (after 30 days) Stabilizer: Enzyme = 0.1:1” value was determined as 18%, the “Enzyme activity retention rate(%) … Enzyme = 1:1” value came out at 48% and the “Enzyme activity retention rate(%) (after 30 days) Stabilizer: Enzyme = 10:1” value is 52%. Moreover, the “Enzyme activity retention rate(%) … Enzyme = 1:1” value on urease [2] turned out to be 30%. Besides, at cytochrome C [4], the “Protein long-term stability … Protein = 0.1:1” value is “◯”, the “Protein long-term stability (after 30 days) Stabilizer: Protein = 1:1” value is given as “◯” and the “Protein long-term stability … Protein = 10:1” value is “◯”. In addition, at cytochrome C [5], the “Protein long-term stability (after 30 days) Stabilize:Protein = 1:1” value is given as “○”. For the same compound, the “DNA long-term stability” value in the data set on DNA is “○ ○”. On urease [3], the “Enzyme activity retention rate (%) … by mortar” value turned out to be 9% and the “Enzyme activity retention rate (%) (after 30 days) Stabilizer:Enzyme = 1:1, Solvent distilled away from dissolution solution” value is reported as 48%. Further, the Zirconium oxide dispersibility entry in data set [6] is listed as “○ ○ ○ ○”. Further, the Titanium oxide dispersibility entry in [7] is reported as “○ ○ ○ ○”. In [8], the Carbon nanotube dispersibility entry is “○ ○”. The Dye dispersibility entry in [9] is “○ ○ ○ ○”. The “Redispersibility Zirconium oxide” value in data set [10] is listed as “○ ○ ○ ○”. Moreover, in [11], the “Redispersibility Titanium oxide” value was “○ ○ ○ ○”. Further, the “Redispersibility Dye” value in data set [12] is recorded as “○ ○ ○ ○”. Also, in data set [13], the Zinc oxide dispersibility result is “○ ○ ○ ○”. Moreover, the Barium titanate dispersibility entry in data set [14] is reported as “○ ○ ○ ○”.
On to `NC(CO)(CO)CO` [Working example 109], for which the Zirconium oxide dispersibility entry in data set [6] is reported as “○ ○ ○ ○”. For the same compound, in [7], the Titanium oxide dispersibility result is listed as “○ ○ ○ ○”. Moreover, the Dye dispersibility entry in [9] was “○ ○ ○ ○”. Further, in [10], the “Redispersibility Zirconium oxide” value was “○ ○ ○ ○”. Besides, the “Redispersibility Titanium oxide” value in data set [11] was “○ ○ ○ ○”. Besides, the “Redispersibility Dye” value in data set [12] was “○ ○ ○ ○”. In addition, in [13], the Zinc oxide dispersibility result is “○ ○ ○ ○”. Besides, the Barium titanate dispersibility entry in data set [14] is reported as “○ ○ ○ ○”.
Regarding `CCC(N)(CO)CO` [Working example 27], at urease [1], the “Enzyme activity retention rate(%) (after 30 days) Stabilizer: Enzyme = 0.1:1” value is listed as 8%, the “Enzyme activity retention rate(%) … Enzyme = 1:1” value stood at 74% and the “Enzyme activity retention rate(%) (after 30 days) Stabilizer: Enzyme = 10:1” value was 20%. Besides, the “Enzyme activity retention rate(%) … Enzyme = 1:1” value on urease [2] turned out to be 11%. In addition, at cytochrome C [4], the “Protein long-term stability … Protein = 0.1:1” value was “◯ ◯”, the “Protein long-term stability (after 30 days) Stabilizer: Protein = 1:1” value is on record as “◯ ◯” and the “Protein long-term stability … Protein = 10:1” value is recorded as “◯ ◯”. Besides, on cytochrome C [5], the “Protein long-term stability (after 30 days) Stabilize:Protein = 1:1” value is reported as “○ ○”. Further, the “DNA long-term stability” value in the data set on DNA is “○ ○”. Moreover, at urease [3], the “Enzyme activity retention rate (%) … by mortar” value is 10% and the “Enzyme activity retention rate (%) (after 30 days) Stabilizer:Enzyme = 1:1, Solvent distilled away from dissolution solution” value was determined as 74%. In addition, in data set [6], the Zirconium oxide dispersibility entry is “○ ○”. The Titanium oxide dispersibility result in [7] is “○ ○”. The Carbon nanotube dispersibility result in [8] is reported as “○ ○”.
